Source: US20230045421A1 (priority 2018, published 2023)
Read-outs that look alike come from different tables or passages of the source.

Test system: HBV rcDNA
Test: HepDE19 assay with bDNA quantitation of HBV rcDNA
Assay type: cell-based, hepatitis B virus
Summary of the method: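 Compounds, top concentration 25 μM in 8-point duplicate series, were applied to Tet-free HepDE19 cultures for 7 days. Branched-DNA quantitation of HBV rcDNA against untreated wells gave EC50 and EC90 by 4-parameter fit. Viability (CC50) came from ATP luminescence on parallel plates incubated 4 days.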

[1] = HepDE19 assay, inhibition of formation of relaxed circular DNA (rcDNA), bDNA quantitation; read-out: DE-19bDNA EC50
[2] = read-out: DE-19bDNA EC50; HepDE19 assay, inhibition of formation of relaxed circular DNA (rcDNA), bDNA quantitation

Row | Compound | EC50 [1] [nM] | further results
1 | CC(c1c[nH]c(=O)c2c(F)cccc12)N(CCCO)C(=O)Nc1ccc(F)c(Cl)c1 (single isomer, unassigned) [Compound 366, 3-(3-Chloro-4-fluorophenyl)-1-(1-(8-fluoro-1-oxo-1,2-dihydroisoquinolin-4-yl)ethyl)-1-(3-hydroxypropyl)urea] | 11000 | –
2 | CC(c1c[nH]c(=O)c2c(F)cccc12)N(CCCO)C(=O)Nc1ccc(F)c(Cl)c1 (single isomer, unassigned) [Compound 367, 3-(3-Chloro-4-fluorophenyl)-1-(1-(8-fluoro-1-oxo-1,2-dihydroisoquinolin-4-yl)ethyl)-1-(3-hydroxypropyl)urea] | 8 | –
3 | CC(c1c[nH]c(=O)c2c(F)cc(F)cc12)N(C)C(=O)Nc1ccc(F)c(Cl)c1 (single isomer, unassigned) [Compound 368, 3-(3-Chloro-4-fluorophenyl)-1-(1-(6,8-difluoro-1-oxo-1,2-dihydroisoquinolin-4-yl)ethyl)-1-methylurea] | 2500 | –
4 | CC(c1c[nH]c(=O)c2c(F)cc(F)cc12)N(C)C(=O)Nc1ccc(F)c(Cl)c1 (single isomer, unassigned) [Compound 369, 3-(3-Chloro-4-fluorophenyl)-1-(1-(6,8-difluoro-1-oxo-1,2-dihydroisoquinolin-4-yl)ethyl)-1-methylurea] | 19 | –
5 | CC(c1c[nH]c(=O)c2c(F)cc(F)cc12)N(C)C(=O)Nc1ccc(F)cc1 (single isomer, unassigned) [Compound 370, 1-(1-(6,8-Difluoro-1-oxo-1,2-dihydroisoquinolin-4-yl)ethyl)-3-(4-fluorophenyl)-1-methylurea] | 5600 | –
6 | CC(c1c[nH]c(=O)c2c(F)cc(F)cc12)N(C)C(=O)Nc1ccc(F)cc1 (single isomer, unassigned) [Compound 371, 1-(1-(6,8-Difluoro-1-oxo-1,2-dihydroisoquinolin-4-yl)ethyl)-3-(4-fluorophenyl)-1-methylurea] | 53 | –
7 | CC(C)CN(C(=O)Nc1ccc(F)c(Cl)c1)C(C)c1c[nH]c(=O)c2c(F)cc(F)cc12 (single isomer, unassigned) [Compound 372, 3-(3-Chloro-4-fluorophenyl)-1-(1-(6,8-difluoro-1-oxo-1,2-dihydroisoquinolin-4-yl)ethyl)-1-isobutylurea] | 5 | –
8 | CC(c1c[nH]c(=O)c2c(F)cc(F)cc12)N(CCCO)C(=O)Nc1ccc(F)c(Cl)c1 (single isomer, unassigned) [Compound 374, 3-(3-Chloro-4-fluorophenyl)-1-(1-(6,8-difluoro-1-oxo-1,2-dihydroisoquinolin-4-yl)ethyl)-1-(3-hydroxypropyl)urea] | – | EC50 (Hepatitis B virus, HepDE19, HepDE19 assay, inhibition of formation of relaxed circular DNA (rcDNA), bDNA quantitation; read-out: DE-19bDNA EC50): 6 nM
9 | CC(C)CN(C(=O)Nc1ccc(F)cc1)C(C)c1c[nH]c(=O)c2c(F)cc(F)cc12 (single isomer, unassigned) [Compound 375, 1-(1-(6,8-Difluoro-1-oxo-1,2-dihydroisoquinolin-4-yl)ethyl)-3-(4-fluorophenyl)-1-isobutylurea] | 1700 | –
10 | CC(C)CN(C(=O)Nc1ccc(F)cc1)C(C)c1c[nH]c(=O)c2c(F)cc(F)cc12 (single isomer, unassigned) [Compound 376, 1-(1-(6,8-Difluoro-1-oxo-1,2-dihydroisoquinolin-4-yl)ethyl)-3-(4-fluorophenyl)-1-isobutylurea] | 7 | –
11 | CC(c1c[nH]c(=O)c2c(F)cc(F)cc12)N(CCCO)C(=O)Nc1ccc(F)cc1 (single isomer, unassigned) [Compound 377, 1-(1-(6,8-Difluoro-1-oxo-1,2-dihydroisoquinolin-4-yl)ethyl)-3-(4-fluorophenyl)-1-(3-hydroxypropyl) urea] | 11000 | –
12 | CC(c1c[nH]c(=O)c2c(F)cc(F)cc12)N(CCCO)C(=O)Nc1ccc(F)cc1 (single isomer, unassigned) [Compound 378, 1-(1-(6,8-Difluoro-1-oxo-1,2-dihydroisoquinolin-4-yl)ethyl)-3-(4-fluorophenyl)-1-(3-hydroxypropyl) urea] | 24 | –
13 | CN(C(=O)Nc1ccc(F)c(Cl)c1)C(CO)c1c[nH]c(=O)c2ccccc12 (single isomer, unassigned) [Compound 379, 3-(3-Chloro-4-fluorophenyl)-1-(2-hydroxy-1-(1-oxo-1,2-dihydroisoquinolin-4-yl)ethyl)-1-methylurea] | – | EC50 [2]: 140 nM
14 | CN(C(=O)Nc1ccc(F)c(Cl)c1)C(CO)c1c[nH]c(=O)c2ccccc12 (single isomer, unassigned) [Compound 380, 3-(3-Chloro-4-fluorophenyl)-1-(2-hydroxy-1-(1-oxo-1,2-dihydroisoquinolin-4-yl)ethyl)-1-methylurea] | – | EC50 [2]: 17000 nM
15 | CC(c1c[nH]c(=O)c2ccc(F)cc12)N(CCS(N)(=O)=O)C(=O)Nc1ccc(F)c(Cl)c1 (single isomer, unassigned) [Compound 381, 2-(3-(3-Chloro-4-fluorophenyl)-1-(1-(6-fluoro-1-oxo-1,2-dihydroisoquinolin-4-yl)ethyl)ureido) ethane-1-sulfonamide] | 1400 | –
16 | CC(c1c[nH]c(=O)c2ccc(F)cc12)N(CCS(N)(=O)=O)C(=O)Nc1ccc(F)c(Cl)c1 (single isomer, unassigned) [Compound 382, 2-(3-(3-Chloro-4-fluorophenyl)-1-(1-(6-fluoro-1-oxo-1,2-dihydroisoquinolin-4-yl)ethyl)ureido) ethane-1-sulfonamide] | 16 | –
17 | CC(c1c[nH]c(=O)c2cc(F)ccc12)N(CCS(N)(=O)=O)C(=O)Nc1ccc(F)c(Cl)c1 (single isomer, unassigned) [Compound 383, 2-(3-(3-Chloro-4-fluorophenyl)-1-(1-(7-fluoro-1-oxo-1,2-dihydroisoquinolin-4-yl)ethyl)ureido) ethane-1-sulfonamide] | 7000 | –
18 | CC(c1c[nH]c(=O)c2cc(F)ccc12)N(CCS(N)(=O)=O)C(=O)Nc1ccc(F)c(Cl)c1 (single isomer, unassigned) [Compound 384, 2-(3-(3-Chloro-4-fluorophenyl)-1-(1-(7-fluoro-1-oxo-1,2-dihydroisoquinolin-4-yl)ethyl)ureido) ethane-1-sulfonamide] | 10 | –
19 | CC(c1c[nH]c(=O)c2cc(F)c(F)cc12)N(CCS(N)(=O)=O)C(=O)Nc1ccc(F)c(Cl)c1 (single isomer, unassigned) [Compound 385, 2-(3-(3-Chloro-4-fluorophenyl)-1-(1-(6,7-difluoro-1-oxo-1,2-dihydroisoquinolin-4-yl)ethyl)ureido) ethane-1-sulfonamide] | 2600 | –
20 | CC(c1c[nH]c(=O)c2cc(F)c(F)cc12)N(CCS(N)(=O)=O)C(=O)Nc1ccc(F)c(Cl)c1 (single isomer, unassigned) [Compound 386, 2-(3-(3-Chloro-4-fluorophenyl)-1-(1-(6,7-difluoro-1-oxo-1,2-dihydroisoquinolin-4-yl)ethyl)ureido) ethane-1-sulfonamide] | 11 | –
21 | CC(c1c[nH]c(=O)c2cc(F)c(F)cc12)N(CCS(N)(=O)=O)C(=O)Nc1ccc(F)cc1 (single isomer, unassigned) [Compound 387, 2-(1-(1-(6,7-Difluoro-1-oxo-1,2-dihydroisoquinolin-4-yl)ethyl)-3-(4-fluorophenyl)ureido)ethane-1-sulfonamide] | 40 | –
22 | CC(c1c[nH]c(=O)c2c(F)cc(F)cc12)N(CCS(N)(=O)=O)C(=O)Nc1ccc(F)c(Cl)c1 (single isomer, unassigned) [Compound 389, 2-(3-(3-Chloro-4-fluorophenyl)-1-(1-(6,8-difluoro-1-oxo-1,2-dihydroisoquinolin-4-yl)ethyl)ureido) ethane-1-sulfonamide] | 3300 | –
23 | CC(c1c[nH]c(=O)c2c(F)cc(F)cc12)N(CCS(N)(=O)=O)C(=O)Nc1ccc(F)c(Cl)c1 (single isomer, unassigned) [Compound 390, 2-(3-(3-Chloro-4-fluorophenyl)-1-(1-(6,8-difluoro-1-oxo-1,2-dihydroisoquinolin-4-yl)ethyl)ureido) ethane-1-sulfonamide] | 17 | –
24 | CC(c1c[nH]c(=O)c2c(F)c(F)ccc12)N(CCS(N)(=O)=O)C(=O)Nc1ccc(F)c(Cl)c1 (single isomer, unassigned) [Compound 391, 2-(3-(3-Chloro-4-fluorophenyl)-1-(1-(7,8-difluoro-1-oxo-1,2-dihydroisoquinolin-4-yl)ethyl)ureido) ethane-1-sulfonamide] | 2900 | –
25 | CC(c1c[nH]c(=O)c2c(F)c(F)ccc12)N(CCS(N)(=O)=O)C(=O)Nc1ccc(F)c(Cl)c1 (single isomer, unassigned) [Compound 392, 2-(3-(3-Chloro-4-fluorophenyl)-1-(1-(7,8-difluoro-1-oxo-1,2-dihydroisoquinolin-4-yl)ethyl)ureido) ethane-1-sulfonamide] | 26 | –
26 | CC(c1c[nH]c(=O)c2c(F)c(F)ccc12)N(CCS(N)(=O)=O)C(=O)Nc1ccc(F)cc1 (single isomer, unassigned) [Compound 394, 2-(1-(1-(7,8-Difluoro-1-oxo-1,2-dihydroisoquinolin-4-yl)ethyl)-3-(4-fluorophenyl)ureido)ethane-1-sulfonamide] | 10000 | –
27 | CC(c1c[nH]c(=O)c2c(F)c(F)ccc12)N(CCS(N)(=O)=O)C(=O)Nc1ccc(F)cc1 (single isomer, unassigned) [Compound 395, 2-(1-(1-(7,8-Difluoro-1-oxo-1,2-dihydroisoquinolin-4-yl)ethyl)-3-(4-fluorophenyl)ureido)ethane-1-sulfonamide] | 300 | –
28 | CC(c1c[nH]c(=O)c2c(F)cccc12)N(CCS(N)(=O)=O)C(=O)Nc1ccc(F)c(Cl)c1 (single isomer, unassigned) [Compound 397, 2-(3-(3-Chloro-4-fluorophenyl)-1-(1-(8-fluoro-1-oxo-1,2-dihydroisoquinolin-4-yl)ethyl)ureido) ethane-1-sulfonamide] | 100 | –
